Results reported in patent US20260207623A1, “USE OF ESTETROL IN HEPATICALLY IMPAIRED PATIENTS” (ESTETRA SRL, priority 2022, published 2026).

What was measured:
[1] = tested on: post-menopausal women; assay: Example 3: menopause-specific Quality of Life (MENQOL) questionnaire; assay type: in vivo, human
[2] = Phase 1 pharmacokinetic study of a single oral dose of 20 mg E4 monohydrate in female subjects with normal hepatic function and mild, moderate or severe hepatic impairment (plasma, LC-MS/MS, non-compartmental analysis); assay type: in vivo, human; settings: for AUC0-24 h, GM / AUC0-24 h, Mean / AUC0-24 h, Median / AUCinf, GM / AUCinf, Mean / AUCinf, Median / AUClast, GM / AUClast, Mean / AUClast, Median / Cmax, GM / Cmax, Mean / Cmax, Median / T1/2, GM / T1/2, Mean / T1/2, Median / Tmax, Median / λz, GM / λz, Mean / λz, Median: single oral dose 20 mg E4 monohydrate, plasma
Protocol: This was a Phase 1, multi-centre, open-label, PK, and safety study of a single oral dose of 20 mg E4 monohydrate in female subjects with normal hepatic function (Group 1), mild hepatic impairment (Group 2), moderate hepatic impairment (Group 3), and severe hepatic impairment (Group 4), as defined using the Child-Pugh classification at Screening.
The study consisted of an eligibility Screening period (within 28 days prior to study drug administration), an Assessment Period with in-house period and outpatient visits (including a single oral dose of 20 mg E4 on Day 1), and a follow up visit. All subjects were confined to the study site from Day-1 (the day before dosing) until Day 4 and returned to the site every day from Day 5 to Day 9. Alternatively, the subjects could stay for a prolonged in-house period in agreement with the Investigator. The follow-up visit occurred on Day 14 (+2 days).
All subjects arrived at the study site in the morning of Day-1 in a fasted state (no food for at least 8 h, water was allowed) to have the scheduled assessments performed in order to confirm eligibility as outlined in the inclusion and exclusion criteria (Section 2.3.1 and Section 2.3.2, respectively). In the morning of Day 1 following an overnight fast, the subjects received oral dosing of 20 mg E4 monohydrate and remained at the site. Study-related assessments were performed at time points indicated in the Schedule of Assessments in Table 2.
Serial blood sampling for PK assessments started on Day 1 and proceeded until Day 9 according to the Pharmacokinetic Sampling Schedule presented in Table 3.
Each enrolled subject was to receive a single oral dose of 20 mg of E4 (estetrol) as monohydrate as a film-coated tablet.
Study drug was administered to subjects in the morning after an overnight fast of at least 8 h.
Calculation of non-compartmental PK parameters were done using WinNonlin™ Professional, Version 6.3 or higher.
The primary PK parameters to be analyzed for E4 in plasma: • Cmax=maximum observed plasma concentration • AUCinf=area under the concentration-time curve (AUC) from time zero extrapolated to infinity
The analysis of E4 and the metabolites E4-3-glucuronide and E4-16-glucuronide in plasma samples were performed at the Bioanalytical Laboratory of the CRO using a validated liquid chromatography-mass spectrometry/mass spectrometry method.
Individual and mean plasma concentrations at each sampling time point for E4 are presented by listings and descriptive summary statistics including means, geometric means (GMs), medians, ranges, standard deviations (SD) and coefficients of variation (CV). Individual, mean and/or median concentrations per hepatic function group were plotted versus time on semilogarithmic scales.
PK parameters were calculated by non-compartmental analysis. PK parameters were analysed using descriptive statistics and are presented by hepatic function group.
Analysis of variance (ANOVA) were used to compare primary PK parameters of E4 (Cmax and AUCinf) between subjects with hepatic impairment and subjects with normal hepatic function in an exploratory approach, using the log-transformed value of each PK parameter as dependent variable, and the hepatic impairment group (normal, mild, moderate, and severe) as a fixed classification factor. Geometric least squares means were used to calculate the ratios of primary PK parameters for each hepatic impairment group to those in the control group, along with 90% confidence intervals (CIs).
Additionally, the impact of age and BMI on the effect of hepatic impairment were evaluated using an ANOVA model similar as the ANOVA model described above, but with the interaction between each factor and the hepatic impairment group included as an additional factor.
The relationship between log-transformed PK parameters (Cmax and AUCinf) and continuous parameters (albumin, total bilirubin, and prothrombin time) used for the Child-Pugh score was explored by a linear regression approach. […]

C[C@]12CC[C@@H]3c4ccc(O)cc4CC[C@H]3[C@@H]1[C@@H](O)[C@@H](O)[C@@H]2O.O [E4 monoh.]
MENQOL Anxious or Nervous, Estimate vs Placebo ([1]; 15 mg): −0.6100 | MENQOL Being Impatient with Others, Estimate vs Placebo ([1]; 15 mg): −0.4911 | MENQOL Difficulty sleeping, Estimate vs Placebo ([1]; 15 mg): −0.7011 | MENQOL Dissatisfied Personal Life, Estimate vs Placebo ([1]; 15 mg): −0.8163 | MENQOL Physical Domain, Aching in muscles, Estimate vs Placebo ([1]; 15 mg): −0.1858 | MENQOL Psychosocial Domain Score, Estimate vs Placebo ([1]; 15 mg): −0.5211 | Total MENQOL Score, Estimate vs Placebo ([1]; 15 mg): −0.7068 | MENQOL Anxious or Nervous, Estimate vs Placebo ([1]; 20 mg): −0.8197 | MENQOL Being Impatient with Others, Estimate vs Placebo ([1]; 20 mg): −0.5656 | MENQOL Difficulty sleeping, Estimate vs Placebo ([1]; 20 mg): −0.7258 | MENQOL Dissatisfied Personal Life, Estimate vs Placebo ([1]; 20 mg): −1.2719 | MENQOL Physical Domain, Aching in muscles, Estimate vs Placebo ([1]; 20 mg): −0.5576 | MENQOL Psychosocial Domain Score, Estimate vs Placebo ([1]; 20 mg): −0.6056 | Total MENQOL Score, Estimate vs Placebo ([1]; 20 mg): −0.7155

CC12CCC3c4ccc(OC5OC(C(=O)O)C(O)C(O)C5O)cc4CCC3C1C(O)C(O)C2O (stereo not drawn) [E4-3-glucuronide, estetrol-3-glucuronide]
AUC0-24 h, GM ([2]; Mild hepatic impairment): 315.86 ng·h/mL | AUC0-24 h, Mean ([2]; Mild hepatic impairment): 322.40 ng·h/mL | AUC0-24 h, Median ([2]; Mild hepatic impairment): 302.66 ng·h/mL | AUCinf, GM ([2]; Mild hepatic impairment): 497.24 ng·h/mL | AUCinf, Mean ([2]; Mild hepatic impairment): 506.96 ng·h/mL | AUCinf, Median ([2]; Mild hepatic impairment): 483.73 ng·h/mL | AUClast, GM ([2]; Mild hepatic impairment): 473.28 ng·h/mL | AUClast, Mean ([2]; Mild hepatic impairment): 483.07 ng·h/mL | AUClast, Median ([2]; Mild hepatic impairment): 440.22 ng·h/mL | Cmax, GM ([2]; Mild hepatic impairment): 113.610 ng/mL | Cmax, Mean ([2]; Mild hepatic impairment): 118.113 ng/mL | Cmax, Median ([2]; Mild hepatic impairment): 114.000 ng/mL | T1/2, GM ([2]; Mild hepatic impairment): 23.130 h | T1/2, Mean ([2]; Mild hepatic impairment): 24.540 h | T1/2, Median ([2]; Mild hepatic impairment): 24.692 h | Tmax, Median ([2]; Mild hepatic impairment): 29.4 min | λz, GM ([2]; Mild hepatic impairment): 0.0300 h⁻¹ | λz, Mean ([2]; Mild hepatic impairment): 0.0318 h⁻¹ | λz, Median ([2]; Mild hepatic impairment): 0.0281 h⁻¹ | AUC0-24 h, GM ([2]; Moderate hepatic impairment): 269.04 ng·h/mL | AUC0-24 h, Mean ([2]; Moderate hepatic impairment): 282.87 ng·h/mL | AUC0-24 h, Median ([2]; Moderate hepatic impairment): 299.08 ng·h/mL | AUCinf, GM ([2]; Moderate hepatic impairment): 363.25 ng·h/mL | AUCinf, Mean ([2]; Moderate hepatic impairment): 388.13 ng·h/mL | AUCinf, Median ([2]; Moderate hepatic impairment): 412.85 ng·h/mL | AUClast, GM ([2]; Moderate hepatic impairment): 311.58 ng·h/mL | AUClast, Mean ([2]; Moderate hepatic impairment): 336.84 ng·h/mL | AUClast, Median ([2]; Moderate hepatic impairment): 325.82 ng·h/mL | Cmax, GM ([2]; Moderate hepatic impairment): 111.990 ng/mL | Cmax, Mean ([2]; Moderate hepatic impairment): 122.863 ng/mL | Cmax, Median ([2]; Moderate hepatic impairment): 133.000 ng/mL | T1/2, GM ([2]; Moderate hepatic impairment): 14.390 h | T1/2, Mean ([2]; Moderate hepatic impairment): 17.084 h | T1/2, Median ([2]; Moderate hepatic impairment): 14.153 h | Tmax, Median ([2]; Moderate hepatic impairment): 60 min | λz, GM ([2]; Moderate hepatic impairment): 0.0500 h⁻¹ | λz, Mean ([2]; Moderate hepatic impairment): 0.0560 h⁻¹ | λz, Median ([2]; Moderate hepatic impairment): 0.0502 h⁻¹ | AUC0-24 h, GM ([2]; Normal hepatic function): 279.86 ng·h/mL | AUC0-24 h, Mean ([2]; Normal hepatic function): 290.53 ng·h/mL | AUC0-24 h, Median ([2]; Normal hepatic function): 309.09 ng·h/mL | AUCinf, GM ([2]; Normal hepatic function): 458.11 ng·h/mL | AUCinf, Mean ([2]; Normal hepatic function): 485.88 ng·h/mL | AUCinf, Median ([2]; Normal hepatic function): 495.16 ng·h/mL | AUClast, GM ([2]; Normal hepatic function): 446.22 ng·h/mL | AUClast, Mean ([2]; Normal hepatic function): 474.51 ng·h/mL | AUClast, Median ([2]; Normal hepatic function): 485.66 ng·h/mL | Cmax, GM ([2]; Normal hepatic function): 68.240 ng/mL | Cmax, Mean ([2]; Normal hepatic function): 73.238 ng/mL | Cmax, Median ([2]; Normal hepatic function): 70.100 ng/mL | T1/2, GM ([2]; Normal hepatic function): 19.540 h | T1/2, Mean ([2]; Normal hepatic function): 20.112 h | T1/2, Median ([2]; Normal hepatic function): 18.583 h | Tmax, Median ([2]; Normal hepatic function): 30 min | λz, GM ([2]; Normal hepatic function): 0.0400 h⁻¹ | λz, Mean ([2]; Normal hepatic function): 0.0364 h⁻¹ | λz, Median ([2]; Normal hepatic function): 0.0373 h⁻¹ | AUC0-24 h, GM ([2]; Severe hepatic impairment): 299.07 ng·h/mL | AUC0-24 h, Mean ([2]; Severe hepatic impairment): 314.97 ng·h/mL | AUC0-24 h, Median ([2]; Severe hepatic impairment): 264.88 ng·h/mL | AUCinf, GM ([2]; Severe hepatic impairment): 332.77 ng·h/mL | AUCinf, Mean ([2]; Severe hepatic impairment): 367.42 ng·h/mL | AUCinf, Median ([2]; Severe hepatic impairment): 305.49 ng·h/mL | AUClast, GM ([2]; Severe hepatic impairment): 325.76 ng·h/mL | AUClast, Mean ([2]; Severe hepatic impairment): 360.81 ng·h/mL | AUClast, Median ([2]; Severe hepatic impairment): 296.24 ng·h/mL | Cmax, GM ([2]; Severe hepatic impairment): 93.970 ng/mL | Cmax, Mean ([2]; Severe hepatic impairment): 96.250 ng/mL | Cmax, Median ([2]; Severe hepatic impairment): 91.550 ng/mL | T1/2, GM ([2]; Severe hepatic impairment): 7.710 h | T1/2, Mean ([2]; Severe hepatic impairment): 8.652 h | T1/2, Median ([2]; Severe hepatic impairment): 6.277 h | Tmax, Median ([2]; Severe hepatic impairment): 30.6 min | λz, GM ([2]; Severe hepatic impairment): 0.0900 h⁻¹ | λz, Mean ([2]; Severe hepatic impairment): 0.1005 h⁻¹ | λz, Median ([2]; Severe hepatic impairment): 0.1104 h⁻¹ | time to primary peak of GM plasma concentrations ([2]; all groups): ≤ 1 h | Tmax was reached within ([2]; mild hepatic impairment): ≤ 2 h | time post dose until which concentrations remained above LLOQ in at least half of the subjects ([2]; mild hepatic impairment): 96 h | Tmax was reached within ([2]; moderate hepatic impairment): ≤ 2 h | time post dose until which concentrations remained above LLOQ in at least half of the subjects ([2]; moderate hepatic impairment): 48 h | time post dose until which concentrations remained above LLOQ in at least half of the subjects ([2]; normal hepatic function): 96 h | Tmax was reached within ([2]; normal hepatic function (due to an outlier)): ~ 6 h | Tmax was reached within ([2]; severe hepatic impairment): ≤ 1 h | time post dose until which concentrations remained above LLOQ in at least half of the subjects ([2]; severe hepatic impairment): 36 h
